Test results from article PMC8262137 (Biochemical pharmacology, 2020).

Target: P-glycoprotein (Pgp; Abcb1a, MDR3) (Mus musculus, UniProt P21447)
Experiment: intrinsic protein fluorescence quenching
Type: binding

P-glycoprotein (Pgp; Abcb1a, MDR3), sequence (P21447 whole entry): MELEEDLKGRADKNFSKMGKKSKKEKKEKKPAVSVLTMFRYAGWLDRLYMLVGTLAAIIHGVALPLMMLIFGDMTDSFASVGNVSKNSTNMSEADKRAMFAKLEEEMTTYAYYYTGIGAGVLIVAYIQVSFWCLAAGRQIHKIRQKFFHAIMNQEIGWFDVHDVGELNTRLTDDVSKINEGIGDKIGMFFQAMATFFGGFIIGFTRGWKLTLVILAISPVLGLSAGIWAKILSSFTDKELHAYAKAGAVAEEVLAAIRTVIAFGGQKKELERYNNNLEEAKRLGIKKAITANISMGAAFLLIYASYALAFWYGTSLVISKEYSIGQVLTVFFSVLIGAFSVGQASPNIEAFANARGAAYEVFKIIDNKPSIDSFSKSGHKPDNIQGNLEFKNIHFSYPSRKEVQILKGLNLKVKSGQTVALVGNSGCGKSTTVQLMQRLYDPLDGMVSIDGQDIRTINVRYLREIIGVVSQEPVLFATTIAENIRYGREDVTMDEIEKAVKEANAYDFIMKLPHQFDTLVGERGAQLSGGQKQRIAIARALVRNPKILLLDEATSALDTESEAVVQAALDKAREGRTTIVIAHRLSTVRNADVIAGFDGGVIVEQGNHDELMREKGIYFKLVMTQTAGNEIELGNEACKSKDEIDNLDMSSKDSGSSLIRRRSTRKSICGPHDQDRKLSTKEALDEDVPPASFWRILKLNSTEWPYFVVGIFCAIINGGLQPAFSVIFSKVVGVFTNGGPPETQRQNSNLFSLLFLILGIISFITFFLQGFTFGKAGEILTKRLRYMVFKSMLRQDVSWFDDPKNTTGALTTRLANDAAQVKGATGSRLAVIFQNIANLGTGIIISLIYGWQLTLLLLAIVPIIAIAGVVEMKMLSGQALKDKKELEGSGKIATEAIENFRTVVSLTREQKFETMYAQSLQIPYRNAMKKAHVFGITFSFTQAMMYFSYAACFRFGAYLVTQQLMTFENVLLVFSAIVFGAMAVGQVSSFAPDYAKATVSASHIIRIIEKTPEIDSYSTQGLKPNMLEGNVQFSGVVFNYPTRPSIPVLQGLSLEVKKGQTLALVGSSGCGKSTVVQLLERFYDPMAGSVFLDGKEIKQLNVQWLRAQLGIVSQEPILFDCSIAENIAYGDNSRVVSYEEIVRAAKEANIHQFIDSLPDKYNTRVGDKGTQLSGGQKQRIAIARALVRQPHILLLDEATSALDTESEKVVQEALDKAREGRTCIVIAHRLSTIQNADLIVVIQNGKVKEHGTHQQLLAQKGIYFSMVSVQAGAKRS

Kd | Structure (SMILES)
16.3 ± 0.7 µM | COc1cccc2c1C(=O)c1c(O)c3c(c(O)c1C2=O)C[C@@](O)(C(C)=O)C[C@@H]3O[C@H]1C[C@H](N)[C@H](O)[C@H](C)O1 [DNR, daunorubicin]
16.9 ± 1.3 µM | COc1cccc2c1C(=O)c1c(O)c3c(c(O)c1C2=O)C[C@@](O)(C(=O)CO)C[C@@H]3O[C@H]1C[C@H](N)[C@H](O)[C@H](C)O1 [DOX, doxorubicin]
